“And” between values parts separate entries of the source, which are not always exact repeats. Equal values may be shown once. Ends that are not written are not given here.
Molecular target: T1, ACE from pig kidney (Sus scrofa, UniProt F1RRW5)
T1 construct: 1 mU ACE from pig kidney (EC 3.4.15.1 (Sigma)); purchased Sigma; host or cells: pig kidney (tissue-derived enzyme)
T1 sequence (F1RRW5 34-1309): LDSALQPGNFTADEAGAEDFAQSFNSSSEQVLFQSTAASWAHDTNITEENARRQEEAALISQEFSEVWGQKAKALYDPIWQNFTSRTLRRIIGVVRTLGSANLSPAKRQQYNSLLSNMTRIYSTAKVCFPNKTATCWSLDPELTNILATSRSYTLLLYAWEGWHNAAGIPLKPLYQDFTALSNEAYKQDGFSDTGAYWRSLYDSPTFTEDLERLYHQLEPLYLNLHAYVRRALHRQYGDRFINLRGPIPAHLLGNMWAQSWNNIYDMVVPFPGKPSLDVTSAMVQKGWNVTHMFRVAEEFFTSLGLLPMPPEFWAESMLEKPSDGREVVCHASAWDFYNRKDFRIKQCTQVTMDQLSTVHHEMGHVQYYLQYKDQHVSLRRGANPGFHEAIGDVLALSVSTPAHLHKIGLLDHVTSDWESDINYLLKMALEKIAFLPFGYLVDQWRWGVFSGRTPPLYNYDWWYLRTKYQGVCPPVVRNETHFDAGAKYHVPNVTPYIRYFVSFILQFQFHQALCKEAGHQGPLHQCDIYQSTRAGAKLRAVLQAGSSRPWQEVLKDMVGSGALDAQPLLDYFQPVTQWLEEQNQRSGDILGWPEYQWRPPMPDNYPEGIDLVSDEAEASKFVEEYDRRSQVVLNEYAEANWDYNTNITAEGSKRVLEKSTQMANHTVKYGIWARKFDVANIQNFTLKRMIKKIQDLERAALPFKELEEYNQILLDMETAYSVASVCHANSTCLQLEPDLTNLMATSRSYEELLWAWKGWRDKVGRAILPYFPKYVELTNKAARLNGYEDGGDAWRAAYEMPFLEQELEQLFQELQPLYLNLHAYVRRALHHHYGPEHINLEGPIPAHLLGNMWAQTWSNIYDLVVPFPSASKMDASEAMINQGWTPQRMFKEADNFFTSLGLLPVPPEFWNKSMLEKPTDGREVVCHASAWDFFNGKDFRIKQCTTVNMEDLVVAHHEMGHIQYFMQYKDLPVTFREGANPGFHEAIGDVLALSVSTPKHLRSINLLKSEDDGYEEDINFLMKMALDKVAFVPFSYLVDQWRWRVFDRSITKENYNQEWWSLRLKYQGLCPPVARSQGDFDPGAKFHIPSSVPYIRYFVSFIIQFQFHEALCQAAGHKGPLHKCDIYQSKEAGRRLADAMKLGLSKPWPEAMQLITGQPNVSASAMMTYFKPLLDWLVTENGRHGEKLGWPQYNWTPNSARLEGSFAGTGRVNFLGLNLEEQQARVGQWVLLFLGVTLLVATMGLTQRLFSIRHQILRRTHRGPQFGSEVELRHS
Assay: biochemical
Format: biochemical
Conditions: for IC50: ACE from pig kidney, determined graphically, read-out: IC50-value (ACE inhibition)
Text: These peptides were investigated for their inhibitory effect using an in vitro-ACE-inhibitor-assay with an angiotensin-converting-enzyme derived from pig kidney. Hippuryl-histidyl-leucin was used as a substrate. […] A concrete experimental description is given below.
The principle of the ACE-inhibition-assay was established by Chejung, H. S., Cushman, D. W.: “Inhibition of homogenous angiotensin converting enzyme of rabbit lung by synthetic venom peptides of Bothrops jararaca.” in Biochimica et Biophysica Acta 293, 451-563 (1973).
The assay was performed in 96 well HTRF-plates (Packard). The concentrations used for each well were:
1 mU ACE from pig kidney (EC 3.4.15.1 (Sigma)) in 30 μl of assay buffer (25 mM HEPES; 0,3 M NaCl, pH 8,2) and 20 μl inhibitor dissolved in assay buffer (0,35-200 μM). The reaction was started by adding 50 μl of 2 mM hippuryl-histidyl-leucin (Sigma) in assay buffer. The reaction was performed at room temperature (22° C.) for 30 minutes and terminated by adding 50 μl of 2 M NaOH. Afterwards 50 μl of 0,5% ortho-phtalaldehyd (Sigma) in methanol were added, 5 minutes later followed by 50 μl of 2,5 M HCl-solution to stabilize the developed fluorescence product.
The results were used to calculate the % inhibition. The IC50-values were determined graphically from a curve showing the dose-reaction ratio.
In order to minimize errors due to time-dependent differences, all pipetting steps were performed in a precise time schedule.

[1] = inhibitor 0.39 μM, replicates A-D
[2] = inhibitor 0.39 μM, replicates A-D, 0.39 µM
[3] = inhibitor 0.78125 μM, replicates A-D
[4] = inhibitor 0.78125 μM, replicates A-D, 0.78125 µM
[5] = inhibitor 1.5625 μM, replicates A-D
[6] = inhibitor 1.5625 μM, replicates A-D, 1.5625 µM
[7] = inhibitor 3.125 μM, replicates A-D
[8] = inhibitor 3.125 μM, replicates A-D, 3.125 µM
[9] = inhibitor 6.25 μM, replicates A-D
[10] = inhibitor 6.25 μM, replicates A-D, 6.25 µM
[11] = inhibitor 12.5 μM, replicates A-D
[12] = inhibitor 12.5 μM, replicates A-D, 12.5 µM
[13] = inhibitor 25 μM, replicates A-D
[14] = inhibitor 25 μM, replicates A-D, 25 µM
[15] = inhibitor 50 μM, replicates A-D
[16] = inhibitor 50 μM, replicates A-D, 50 µM
[17] = inhibitor 100 μM, replicates A-D
[18] = inhibitor 100 μM, replicates A-D, 100 µM
[19] = inhibitor 200 μM, replicates A-D
[20] = inhibitor 200 μM, replicates A-D, 200 µM

Row | Substance | IC50 | fluorescence reading (ACE Inhibitor Assay) [1] | % inhibition (ACE Inhibitor Assay) [2] | fluorescence reading (ACE Inhibitor Assay) [3] | % inhibition (ACE Inhibitor Assay) [4] | fluorescence reading (ACE Inhibitor Assay) [5] | % inhibition (ACE Inhibitor Assay) [6] | fluorescence reading (ACE Inhibitor Assay) [7] | inhibition at 3.125 µM [7] | % inhibition (ACE Inhibitor Assay) [8] | fluorescence reading (ACE Inhibitor Assay) [9] | inhibition at 6.25 µM [9] | % inhibition (ACE Inhibitor Assay) [10] | fluorescence reading (ACE Inhibitor Assay) [11] | inhibition at 12.5 µM [11] | % inhibition (ACE Inhibitor Assay) [12] | fluorescence reading (ACE Inhibitor Assay) [13] | inhibition at 25 µM [13] | % inhibition (ACE Inhibitor Assay) [14] | fluorescence reading (ACE Inhibitor Assay) [15] | also measured
1 | LSPLPEVPP [Peptide S546] | 3.5 µM | 803315 and 773719 and 787391 and 826280 | 14.38% and 12.86% and 8.53% | 719861 and 687713 and 702450 and 763649 | 23.96% and 22.32% and 15.5% | 591636 and 572728 and 566984 and 657580 | 36.77% and 37.41% and 27.32% | 483121 and 472396 and 452574 and 495814 | 46.8% | 47.95% and 50.15% and 45.32% | 308510 and 312423 and 322970 and 336576 | 66.2% | 65.77% and 64.59% and 63.07% | 225714 and 208268 and 221839 and 226385 | 75.4% | 77.32% and 75.86% and 75.35% | 116421 and 119382 and 118514 and 124101 | 87.6% | 87.27% and 87.36% and 86.74% | 69502 and 65379 and 67861 and 73176 | inhibition at 0.39 µM [1]: 11.1%; inhibition at 0.78125 µM [3]: 20.4%; inhibition at 1.5625 µM [5]: 34.7%; inhibition at 50 µM [15]: 92.8%; % inhibition (ACE Inhibitor Assay) [16]: 93.28% and 93.01% and 92.41%; fluorescence reading (ACE Inhibitor Assay) [17]: 37664 and 36789 and 37490 and 39445; inhibition at 100 µM [17]: 96.4%; % inhibition (ACE Inhibitor Assay) [18]: 96.47% and 96.39% and 96.17%; fluorescence reading (ACE Inhibitor Assay) [19]: 22822 and 23110 and 24700 and 22511; inhibition at 200 µM [19]: 98%; % inhibition (ACE Inhibitor Assay) [20]: 97.99% and 97.82% and 98.06%
2 | PLPEVPP [Peptide S548, PLPEVPP] | 21 µM | 850082 and 861072 and 990310 and 812986 | 5,85% and 4,63% and −9,77% and 9,98% | 736956 and 848448 and 878121 and 787559 | 18,46% and 6,03% and 2,73% and 12,82% | 672595 and 802519 and 857919 and 773857 | 25,63% and 11,15% and 4,98% and 14,35% | 735840 and 756404 and 788637 and 719509 | 18.6% | 16,29% and 12,7% and 20,4% | 644083 and 676136 and 699343 and 628007 | 28.8% | 25,23% and 22,65% and 30,6% | 668264 and 582524 and 619407 and 572641 | 37.2% | 35,66% and 31,55% and 36,76% | 411233 and 394114 and 413347 and 402465 | 54.8% | 56,66% and 54,52% and 55,73% | 291507 and 326054 and 343249 and 278402 | inhibition at 50 µM [15]: 68.1%; % inhibition (ACE Inhibitor Assay) [16]: 64,24% and 62,33% and 69,55%; fluorescence reading (ACE Inhibitor Assay) [17]: 181416 and 194177 and 204171 and 168452; inhibition at 100 µM [17]: 80.4%; % inhibition (ACE Inhibitor Assay) [18]: 78,94% and 77,82% and 81,8%; fluorescence reading (ACE Inhibitor Assay) [19]: 108115 and 108968 and 113955 and 101322; inhibition at 200 µM [19]: 88.5%; % inhibition (ACE Inhibitor Assay) [20]: 88,43% and 87,87% and 89,28%

Reference: patent US20030203373A1 (priority 2002, published 2003)
